Records with an inconclusive call do not appear. Calls of active or inactive are those of the source. The rule behind the calls is not given here.
System: rat and mouse 2-year carcinogenicity bioassay, tumor evidence
Experiment: Consolidated carcinogenicity assay summary data

**Q.** How did the carcinogen call (Route (rodents): Gavage) turn out when C=CC(=O)NCO was run?
**A.** Its carcinogen call is “active; no evidence”.

**Q.** With c1ccc2ccccc2c1 as the compound, how does the carcinogen call (Route (rodents): Inhalation) read?
**A.** Its carcinogen call is “active; clear evidence”.

**Q.** How did the carcinogen call (Route (rodents): Inhalation) turn out when C[N+](=O)[O-] was run?
**A.** Its carcinogen call is “active; no evidence”.

**Q.** With Cc1ccc2c(c1[N+](=O)[O-])C(=O)c1ccccc1C2=O as the compound, how does the carcinogen call (Route (rodents): Dosed feed) read?
**A.** The carcinogen call was “active; clear evidence”.

**Q.** Which carcinogen call (Route (rodents): Gavage) does the source give for O=Cc1ccco1 here?
**A.** Its carcinogen call is “active; some evidence”.

**Q.** Nc1nc(N)nc(N)n1 was tested. Which carcinogen call (Route (rodents): Dosed feed) did it give?
**A.** Its carcinogen call is “active; clear evidence”.

**Q.** With Cc1cc(-c2ccc(N)c(C)c2)ccc1N as the compound, how does the carcinogen call (Route (rodents): Dosed water) read?
**A.** Its carcinogen call is “active; clear evidence”.

**Q.** CCCCOC(=O)c1ccccc1C(=O)OCc1ccccc1 was tested. Which carcinogen call (Route (rodents): Dosed feed) did it give?
**A.** The carcinogen call was “active; some evidence”.

**Q.** CCCCCCCCCCCC(=O)N(CCO)CCO was tested. Which carcinogen call (Route (rodents): Topical) did it give?
**A.** Its carcinogen call is “active; no evidence”.

**Q.** How did the carcinogen call (Route (rodents): Dosed feed) turn out when Nc1ccccc1-c1ccccc1 was run?
**A.** The carcinogen call was “active; no evidence”.

**Q.** CN(C)C(=O)Nc1ccc(Cl)cc1 was tested. Which carcinogen call (Route (rodents): Dosed feed) did it give?
**A.** Its carcinogen call is “active; clear evidence”.

**Q.** For CCC1(c2ccccc2)C(=O)NCNC1=O, which carcinogen call (Route (rodents): Dosed feed) is on record?
**A.** Its carcinogen call is “active; equivocal evidence”.

**Q.** With C=C(C)C as the compound, how does the carcinogen call (Route (rodents): Inhalation) read?
**A.** Its carcinogen call is “active; some evidence”.

**Q.** Which carcinogen call (Route (rodents): Dosed feed) does the source give for COc1ccccc1N here?
**A.** The carcinogen call was “active; clear evidence”.

**Q.** Which carcinogen call (Route (rodents): Gavage) does the source give for C[C@]12CCC(=O)C=C1CC[C@@H]1[C@@H]2CC[C@]2(C)C(=O)CC[C@@H]12 here?
**A.** Its carcinogen call is “active; equivocal evidence”.

**Q.** O=C1C2CC=CCC2C(=O)N1SC(Cl)(Cl)Cl (centres undefined) was tested. Which carcinogen call (Route (rodents): Dosed feed) did it give?
**A.** Its carcinogen call is “active; no evidence”.

**Q.** Which carcinogen call (Route (rodents): Inhalation) does the source give for C=C(C)c1ccccc1 here?
**A.** Its carcinogen call is “active; some evidence”.

**Q.** Which carcinogen call (Route (rodents): Dosed feed) does the source give for O=C1C2(Cl)C3(Cl)C4(Cl)C(Cl)(Cl)C5(Cl)C3(Cl)C1(Cl)C5(Cl)C24Cl (centres undefined) here?
**A.** The carcinogen call was “active; clear evidence”.

**Q.** How did the carcinogen call (Route (rodents): Gavage) turn out when ClC(Cl)Cl was run?
**A.** The carcinogen call was “active; clear evidence”.

**Q.** [O]=[Mo](=[O])=[O] was tested. Which carcinogen call (Route (rodents): Inhalation) did it give?
**A.** The carcinogen call was “active; equivocal evidence”.

**Q.** For ClC1=C(Cl)[C@]2(Cl)[C@H]3[C@H]([C@@H]4C=C[C@H]3C4)[C@@]1(Cl)C2(Cl)Cl, which carcinogen call (Route (rodents): Dosed feed) is on record?
**A.** The carcinogen call was “active; equivocal evidence”.

**Q.** Which carcinogen call (Route (rodents): Gavage) does the source give for OCc1c[nH]c2ccccc12 here?
**A.** Its carcinogen call is “active; no evidence”.

**Q.** For ClC(Cl)Br, which carcinogen call (Route (rodents): Gavage, Second Route: Dosed Water) is on record?
**A.** The carcinogen call was “active; clear evidence”.

**Q.** ClCC(Cl)(Cl)Cl was tested. Which carcinogen call (Route (rodents): Gavage) did it give?
**A.** Its carcinogen call is “active; equivocal evidence”.

**Q.** With C=CCN=C=S as the compound, how does the carcinogen call (Route (rodents): Gavage) read?
**A.** The carcinogen call was “active; clear evidence”.

**Q.** CC(=O)C(C)=O was tested. Which carcinogen call (Route (rodents): Inhalation) did it give?
**A.** The carcinogen call was “active; some evidence”.

**Q.** With C/C=C(/C)C(=O)O[C@H]1CCN2CC=C(COC(=O)[C@@](O)([C@@H](C)OC)C(C)(C)O)[C@H]12 as the compound, how does the carcinogen call (Route (rodents): Dosed feed) read?
**A.** The carcinogen call was “active; clear evidence”.

**Q.** With CCOc1ccc(NC(C)=O)cc1N as the compound, how does the carcinogen call (Route (rodents): Dosed feed) read?
**A.** Its carcinogen call is “active; no evidence”.

**Q.** For c1ccc2occc2c1, which carcinogen call (Route (rodents): Gavage) is on record?
**A.** The carcinogen call was “active; no evidence”.

**Q.** ClCc1cccnc1 was tested. Which carcinogen call (Route (rodents): Gavage) did it give?
**A.** The carcinogen call was “active; clear evidence”.

**Q.** How did the carcinogen call (Route (rodents): Dosed feed) turn out when ClC1=C(Cl)C2(Cl)C3C(Cl)C(Cl)CC3C1(Cl)C2(Cl)Cl (centres undefined) was run?
**A.** Its carcinogen call is “active; no evidence”.

**Q.** For CC1=CC(=O)CC(C)(C)C1, which carcinogen call (Route (rodents): Gavage) is on record?
**A.** The carcinogen call was “active; some evidence”.

**Q.** How did the carcinogen call (Route (rodents): Inhalation) turn out when ClCCl was run?
**A.** Its carcinogen call is “active; some evidence”.

**Q.** O=C(O)C1C(C(=O)O)C2(Cl)C(Cl)=C(Cl)C1(Cl)C2(Cl)Cl (centres undefined) was tested. Which carcinogen call (Route (rodents): Dosed feed) did it give?
**A.** Its carcinogen call is “active; clear evidence”.

**Q.** C=CC(=C)Cl was tested. Which carcinogen call (Route (rodents): Inhalation) did it give?
**A.** Its carcinogen call is “active; clear evidence”.

**Q.** Which carcinogen call (Route (rodents): Gavage) does the source give for CC(C)=C1CC[C@@H](C)CC1=O here?
**A.** Its carcinogen call is “active; no evidence”.

**Q.** How did the carcinogen call (Route (rodents): Gavage) turn out when Oc1ccc(Cl)cc1Cc1ccccc1 was run?
**A.** Its carcinogen call is “active; no evidence”.

**Q.** For CCOc1ccc(NC(C)=O)cc1[N+](=O)[O-], which carcinogen call (Route (rodents): Dosed feed) is on record?
**A.** Its carcinogen call is “active; no evidence”.

**Q.** How did the carcinogen call (Route (rodents): Dosed water) turn out when O=C(O)C(Br)Br was run?
**A.** Its carcinogen call is “active; some evidence”.

**Q.** For CCOC(N)=O, which carcinogen call (Route (rodents): Dosed water) is on record?
**A.** The carcinogen call was “active”.

**Q.** For O=C(O)C(F)(F)C(F)(F)C(F)(F)C(F)(F)C(F)(F)C(F)(F)C(F)(F)F, which carcinogen call (Route (rodents): Dosed feed) is on record?
**A.** Its carcinogen call is “active; clear evidence”.

**Q.** Which carcinogen call (Route (rodents): Inhalation) does the source give for CCCCOCCO here?
**A.** The carcinogen call was “active; no evidence”.

**Q.** How did the carcinogen call (Route (rodents): Dosed feed) turn out when Nc1ccc(N=Nc2ccccc2)c(N)n1 was run?
**A.** The carcinogen call was “active; clear evidence”.

**Q.** How did the carcinogen call (Route (rodents): Dosed feed) turn out when C[C@H]1CCCC(=O)CCC/C=C/c2cc(O)cc(O)c2C(=O)O1 was run?
**A.** The carcinogen call was “active; no evidence”.
